Experimental findings from ChEMBL document CHEMBL1141209, “Carbonic anhydrase inhibitors: inhibition of the human isozymes I, II, VA, and IX with a library of substituted difluoromethanesulfonamides” (Bioorg Med Chem Lett, 2005) are described below.

Some targets named below: Carbonic anhydrase 2 (Homo sapiens, UniProt P00918); Carbonic anhydrase 9 (Homo sapiens, UniProt Q16790); Carbonic anhydrase 1 (Homo sapiens, UniProt P00915).
Assay [1] has as its target Carbonic anhydrase 5A, mitochondrial (Homo sapiens, UniProt P35218).
Description: Inhibition of recombinant human mitochondrial isozyme CA VA

Sequence of Carbonic anhydrase 1 (P00915 whole entry): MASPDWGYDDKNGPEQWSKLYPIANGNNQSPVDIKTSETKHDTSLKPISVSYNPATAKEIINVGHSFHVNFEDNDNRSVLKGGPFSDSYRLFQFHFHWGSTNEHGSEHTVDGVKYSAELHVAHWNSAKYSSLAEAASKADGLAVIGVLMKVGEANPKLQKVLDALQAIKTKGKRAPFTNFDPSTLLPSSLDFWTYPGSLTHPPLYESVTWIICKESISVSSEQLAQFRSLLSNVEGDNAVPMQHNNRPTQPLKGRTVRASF
Sequence of Carbonic anhydrase 5A, mitochondrial (P35218 whole entry): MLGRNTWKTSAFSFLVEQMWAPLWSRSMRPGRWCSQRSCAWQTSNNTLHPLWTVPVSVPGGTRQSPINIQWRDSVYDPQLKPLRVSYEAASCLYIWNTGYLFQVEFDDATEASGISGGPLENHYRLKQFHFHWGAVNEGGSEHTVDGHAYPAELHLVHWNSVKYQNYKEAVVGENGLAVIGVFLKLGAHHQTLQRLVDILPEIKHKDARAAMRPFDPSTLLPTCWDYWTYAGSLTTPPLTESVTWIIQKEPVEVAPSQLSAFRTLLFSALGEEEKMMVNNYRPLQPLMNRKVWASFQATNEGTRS
Description for Carbonic anhydrase 1: Inhibition of recombinant human cytosolic isozyme CA I
Description for Carbonic anhydrase 2: Inhibition of recombinant human cytosolic isozyme CA II
Description for Carbonic anhydrase 9: Inhibition of cloned human transmembrane, tumor-associated isozyme CA IX

As for `Cc1cc(=O)oc2cc(OS(N)(=O)=O)ccc12`, the affinity at Carbonic anhydrase 2, expressed as Ki, was 25 nM. In the case of `C[C@]12CC[C@@H]3c4ccc(C(F)(F)S(N)(=O)=O)cc4CC[C@H]3[C@@H]1CCC2=O`, the Ki on Carbonic anhydrase 9 was 1730 nM; at Carbonic anhydrase 1, 96 nM; at Carbonic anhydrase 2, 670 nM; in assay [1] it was 129 nM. Regarding `C[C@]12CC[C@@H]3c4ccc(CS(N)(=O)=O)cc4CC[C@H]3[C@@H]1CCC2=O`, the Ki on Carbonic anhydrase 9 was 208 nM; on Carbonic anhydrase 1, 116 nM; at Carbonic anhydrase 2, 80 nM; in assay [1], 1460 nM. `Cc1cc(=O)oc2cc(C(F)(F)S(N)(=O)=O)ccc12` gave a Ki on Carbonic anhydrase 9 of 195 nM. Regarding `Cc1cc(=O)oc2cc(CS(N)(=O)=O)ccc12`, on Carbonic anhydrase 9, the affinity, expressed as Ki, was 240 nM.

Consider `Cc1ccc(C(F)(F)S(N)(=O)=O)cc1`, for which the Ki at Carbonic anhydrase 9 is 250 nM. The Ki values of the last two compounds are within 1.5-fold of each other.

As to `NS(=O)(=O)C(F)(F)c1ccccc1Br`, on Carbonic anhydrase 9, the affinity, expressed as Ki, was 9280 nM.

At Carbonic anhydrase 9, `NS(=O)(=O)C(F)(F)c1cccc(Br)c1` showed a Ki of 1490 nM. This Ki lies about 6.2-fold lower than the previous one. Compound `NS(=O)(=O)C(F)(F)c1ccc([N+](=O)[O-])cc1` came in with a Ki at Carbonic anhydrase 9 of 2420 nM. Compound `NS(=O)(=O)C(F)(F)c1ccc(Br)cc1` displayed a Ki on Carbonic anhydrase 9 of 7730 nM.

Compound `NS(=O)(=O)C(F)(F)c1ccccc1` [PHENYLDIFLUOROMETHANESULFONAMIDE] gave a Ki on Carbonic anhydrase 9 of 8500 nM.

For the compound `NS(=O)(=O)Cc1ccccc1` [PHENYLMETHANESULFONAMIDE], at Carbonic anhydrase 9, the affinity, expressed as Ki, was 9300 nM.
